Experimental data published in patent publication US12404295B2, “(Hetero)aryl-methyl-thio-beta-D-galactopyranoside derivatives” (Idorsia Pharmaceuticals Ltd, priority 2019, dated 2025).
Like-named read-outs stand apart in the source and are kept apart here.

Tests used:
human Gal-3 (hGal-3) = human Gal-3 (hGal-3) (Homo sapiens (Human), UniProt P17931); test: competitive binding assay: biotinylated hGal-3 binding to microplate-adsorbed asialofetuin (ASF)
In short: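 Peroxidase activity developed with ABTS measures the biotinylated hGal-3 remaining on the asialofetuin-coated surface after competition with test compounds. Incubation ran 3 h at 4 °C, followed by 1 h with streptavidin-peroxidase at 80 ng/mL.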

human Gal-1 (hGal-1) = human Gal-1 (hGal-1) (Homo sapiens (Human), UniProt P09382); test: competitive binding assay: biotinylated hGal-1 binding to microplate-adsorbed asialofetuin (ASF); conditions: Table 15; read-out: IC50 (Galectin-1 inhibition)
In short: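 Biotinylated human Gal-1 (300-1000 ng/mL) competes with serially diluted compound for binding to ASF-coated plates, 3 h at 4° C. Bound protein detected with streptavidin-peroxidase and ABTS substrate (spectrophotometric). IC50 given as mean of several measurements.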

[1] = Gal-3 inhibition, binding of biotinylated hGal-3 to ASF, mean values, read-out: IC50
[2] = Table 9, 2-OMe-Gal inhibitors, read-out: IC50 (Gal-3 inhibition)
[3] = Table 11, read-out: IC50 (Gal-3 inhibition)
[4] = Table 10, 2-OMe-Gal inhibitors, read-out: IC50 (Gal-3 inhibition)

Sequence of human Gal-3 (hGal-3) (P17931 whole entry): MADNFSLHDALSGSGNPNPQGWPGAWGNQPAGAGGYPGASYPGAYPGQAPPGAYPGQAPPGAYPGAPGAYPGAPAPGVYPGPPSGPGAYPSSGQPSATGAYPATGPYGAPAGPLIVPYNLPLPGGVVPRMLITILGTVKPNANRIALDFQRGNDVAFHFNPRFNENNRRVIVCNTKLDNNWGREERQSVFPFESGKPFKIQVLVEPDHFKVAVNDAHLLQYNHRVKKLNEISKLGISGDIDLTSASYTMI
Sequence of human Gal-1 (hGal-1) (P09382 whole entry): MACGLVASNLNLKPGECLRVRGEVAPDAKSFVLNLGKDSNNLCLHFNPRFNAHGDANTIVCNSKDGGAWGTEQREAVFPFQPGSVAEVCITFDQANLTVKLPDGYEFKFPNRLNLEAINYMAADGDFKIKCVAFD

## CC(C)c1ccccc1[C@@H](S[C@@H]1O[C@H](CO)[C@H](O)[C@H](n2cc(-c3cc(F)c(F)c(F)c3)nn2)[C@H]1O)C(C)(C)O [Example 2.31.105R., (2S,3R,4S,5R,6R)-2-(((R)-2-Hydroxy-1-(2-isopropylphenyl)-2-methylpropyl)thio)-6-(hydroxymethyl)-4-(4-(3,4,5-trifluorophenyl)-1H-1,2,3-triazol-1-yl)tetrahydro-2H-pyran-3,5-diol]
Human Gal-3 (hGal-3); [1]
  IC50: 60 nM
Human Gal-1 (hGal-1)
  IC50: 160 nM

## Cc1c(F)cccc1C(S[C@@H]1O[C@H](CO)[C@H](O)[C@H](n2cc(-c3cc(F)c(F)c(F)c3)nn2)[C@H]1O)C(C)(C)O (stereo partly drawn) [Example 2.31.114., (2S,3R,4S,5R,6R)-2-((1-(3-Fluoro-2-methylphenyl)-2-hydroxy-2-methylpropyl)thio)-6-(hydroxymethyl)-4-(4-(3,4,5-trifluorophenyl)-1H-1,2,3-triazol-1-yl)tetrahydro-2H-pyran-3,5-diol]
Human Gal-3 (hGal-3); [1]
  IC50: 130 nM
Human Gal-1 (hGal-1)
  IC50: 2270 nM

## CO[C@@H]1[C@@H](n2cc(-c3cc(F)c(F)c(F)c3)nn2)[C@@H](O)[C@@H](CO)O[C@H]1SC(c1ccccc1C(F)(F)F)C1(O)CCN(C(=O)NC2CC2)CC1 (stereo partly drawn) [Example 2.49.112.I.]
Human Gal-3 (hGal-3); [1]
  IC50: 210 nM
Human Gal-1 (hGal-1)
  IC50: 490 nM

## CC(C)(O)[C@@H](S[C@@H]1O[C@H](CO)[C@H](O)[C@H](n2cc(-c3cc(F)c(F)c(F)c3)nn2)[C@H]1O)c1cccc2ccccc12 [Example 2.31.115S., (2S,3R,4S,5R,6R)-2-(((S)-2-Hydroxy-2-methyl-1-(naphthalen-1-yl)propyl)thio)-6-(hydroxymethyl)-4-(4-(3,4,5-trifluorophenyl)-1H-1,2,3-triazol-1-yl)tetrahydro-2H-pyran-3,5-diol]
Human Gal-3 (hGal-3); [1]
  IC50: 10300 nM
Human Gal-1 (hGal-1)
  IC50: 47900 nM

## CC(C)(O)C(S[C@@H]1O[C@H](CO)[C@H](O)[C@H](n2cc(-c3cc(F)c(F)c(F)c3)nn2)[C@H]1O)c1cccc(Cl)c1Cl (stereo partly drawn) [Example 2.31.113., (2S,3R,4S,5R,6R)-2-((1-(2,3-Dichlorophenyl)-2-hydroxy-2-methylpropyl)thio)-6-(hydroxymethyl)-4-(4-(3,4,5-trifluorophenyl)-1H-1,2,3-triazol-1-yl)tetrahydro-2H-pyran-3,5-diol]
Human Gal-3 (hGal-3); [1]
  IC50: 460 nM
Human Gal-1 (hGal-1)
  IC50: 3750 nM

## CO[C@@H]1[C@@H](n2cc(-c3cc(F)c(F)c(F)c3)nn2)[C@@H](O)[C@@H](CO)O[C@H]1S[C@H](c1ncccc1Cl)C1(O)CCC(F)(F)CC1 [Example 2.44.137R.I., (2R,3R,4S,5R,6S)-6-(((R)-(3-Chloropyridin-2-yl)(4,4-difluoro-1-hydroxycyclohexyl)methyl)thio)-2-(hydroxymethyl)-5-methoxy-4-(4-(3,4,5-trifluorophenyl)-1H-1,2,3-triazol-1-yl)tetrahydro-2H-pyran-3-ol]
Human Gal-3 (hGal-3); [2]
  IC50: 70 nM
Human Gal-1 (hGal-1)
  IC50: 720 nM

## CO[C@@H]1[C@@H](n2cc(-c3cc(F)c(F)c(F)c3)nn2)[C@@H](O)[C@@H](CO)O[C@H]1SC(c1nc(C)ccc1C)C1(O)CCC(F)(F)CC1 (stereo partly drawn) [Example 2.44.149.I., (2R,3R,4S,5R,6S)-6-(((4,4-Difluoro-1-hydroxycyclohexyl)(3,6-dimethylpyridin-2-yl)methyl)thio)-2-(hydroxymethyl)-5-methoxy-4-(4-(3,4,5-trifluorophenyl)-1H-1,2,3-triazol-1-yl)tetrahydro-2H-pyran-3-ol]
Human Gal-3 (hGal-3); [3]
  IC50: 400 nM
Human Gal-1 (hGal-1)
  IC50: 2800 nM

## (2S,3R,4S,5R,6R)-2-(((S)-((S)-4-Hydroxy-2,2-dimethyltetrahydro-2H-pyran-4-yl)(o-tolyl)methyl)thio)-6-(hydroxymethyl)-4-(4-(3,4,5-trifluorophenyl)-1H-1,2,3-triazol-1-yl)tetrahydro-2H-pyran-3,5-diol [Example 2.43.112SS.]
Human Gal-3 (hGal-3); Table 5, read-out: IC50 (Gal-3 inhibition)
  IC50: 7300 nM
Human Gal-1 (hGal-1)
  IC50: 19400 nM

## OC[C@H]1O[C@@H](S[C@@H](c2ncccc2C2CC2)C2(O)CCC(F)(F)CC2)[C@H](O)[C@@H](n2cc(-c3cc(F)c(F)c(F)c3)nn2)[C@H]1O [Example 2.44.134S., (2S,3R,4S,5R,6R)-2-(((S)-(3-Cyclopropylpyridin-2-yl)(4,4-difluoro-1-hydroxycyclohexyl)methyl)thio)-6-(hydroxymethyl)-4-(4-(3,4,5-trifluorophenyl)-1H-1,2,3-triazol-1-yl)tetrahydro-2H-pyran-3,5-diol]
Human Gal-3 (hGal-3); [1]
  IC50: 700 nM
Human Gal-1 (hGal-1)
  IC50: 2700 nM

## CO[C@@H]1[C@@H](n2cc(-c3cc(F)c(F)c(F)c3)nn2)[C@@H](O)[C@@H](CO)O[C@H]1SC(c1nc(Cl)ccc1Cl)C1(O)CCC(F)(F)CC1 (stereo partly drawn) [Example 2.44.144.I., (2R,3R,4S,5R,6S)-6-(((3,6-Dichloropyridin-2-yl)(4,4-difluoro-1-hydroxycyclohexyl)methyl)thio)-2-(hydroxymethyl)-5-methoxy-4-(4-(3,4,5-trifluorophenyl)-1H-1,2,3-triazol-1-yl)tetrahydro-2H-pyran-3-ol]
Human Gal-3 (hGal-3); [3]
  IC50: 250 nM
Human Gal-1 (hGal-1)
  IC50: 4160 nM

## CC(C)Cc1ccccc1[C@H](S[C@@H]1O[C@H](CO)[C@H](O)[C@H](n2cc(-c3cc(F)c(F)c(F)c3)nn2)[C@H]1O)C(C)(C)O [Example 2.31.107S., (2S,3R,4S,5R,6R)-2-(((S)-2-hydroxy-1-(2-isobutylphenyl)-2-methylpropyl)thio)-6-(hydroxymethyl)-4-(4-(3,4,5-trifluorophenyl)-1H-1,2,3-triazol-1-yl)tetrahydro-2H-pyran-3,5-diol]
Human Gal-3 (hGal-3); [1]
  IC50: 950 nM
Human Gal-1 (hGal-1)
  IC50: 56600 nM

## CC(C)(O)C(S[C@@H]1O[C@H](CO)[C@H](O)[C@H](n2cc(-c3cc(F)c(F)c(F)c3)nn2)[C@H]1O)c1ccccc1C1CC1 (stereo partly drawn) [Example 2.31.106., (2S,3R,4S,5R,6R)-2-((1-(2-Cyclopropylphenyl)-2-hydroxy-2-methylpropyl)thio)-6-(hydroxymethyl)-4-(4-(3,4,5-trifluorophenyl)-1H-1,2,3-triazol-1-yl)tetrahydro-2H-pyran-3,5-diol]
Human Gal-3 (hGal-3); [1]
  IC50: 200 nM
Human Gal-1 (hGal-1)
  IC50: 340 nM

## CO[C@@H]1[C@@H](n2cc(-c3cc(F)c(F)c(F)c3)nn2)[C@@H](O)[C@@H](CO)O[C@H]1S[C@H](c1ncccc1C(C)C)C1(O)CCC(F)(F)CC1 [Example 2.44.132R.I., (2R,3R,4S,5R,6S)-6-(((R)-(4,4-Difluoro-1-hydroxycyclohexyl)(3-isopropylpyridin-2-yl)methyl)thio)-2-(hydroxymethyl)-5-methoxy-4-(4-(3,4,5-trifluorophenyl)-1H-1,2,3-triazol-1-yl)tetrahydro-2H-pyran-3-ol]
Human Gal-3 (hGal-3); [2]
  IC50: 120 nM
Human Gal-1 (hGal-1)
  IC50: 100 nM

## CO[C@@H]1[C@@H](n2cc(-c3cc(F)c(F)c(F)c3)nn2)[C@@H](O)[C@@H](CO)O[C@H]1S[C@@H](c1ccccc1C(C)C)C1(O)CCC(F)(F)CC1 [Example 2.44.105S.I., (2R,3R,4S,5R,6S)-6-(((S)-(4,4-Difluoro-1-hydroxycyclohexyl)(2-isopropylphenyl)methyl)thio)-2-(hydroxymethyl)-5-methoxy-4-(4-(3,4,5-trifluorophenyl)-1H-1,2,3-triazol-1-yl)tetrahydro-2H-pyran-3-ol]
Human Gal-3 (hGal-3); [4]
  IC50: 70500 nM
Human Gal-1 (hGal-1)
  IC50: 53300 nM

## CO[C@@H]1[C@@H](n2cc(-c3cc(F)c(F)c(F)c3)nn2)[C@@H](O)[C@@H](CO)O[C@H]1S[C@@H](c1c(C)cnn1C)C1(O)CCC(F)(F)CC1 [Example 2.44.136S.I., (2R,3R,4S,5R,6S)-6-(((S)-(4,4-Difluoro-1-hydroxycyclohexyl)(1,4-dimethyl-1H-pyrazol-5-yl)methyl)thio)-2-(hydroxymethyl)-5-methoxy-4-(4-(3,4,5-trifluorophenyl)-1H-1,2,3-triazol-1-yl)tetrahydro-2H-pyran-3-ol]
Human Gal-3 (hGal-3); [4]
  IC50: 15600 nM
Human Gal-1 (hGal-1)
  IC50: > 100000 nM
